Results reported in patent US6545032B1, “Synthesis of [3,5,7]-H-imidazo[1,5-a] imidazol-2(3H)-one compounds” (Torrey Pines Institute for Molecular Studies, priority 1999, dated 2003).

Experiments:
kappa opiate receptor = molecular target: T1, kappa opiate receptor (Cavia porcellus, UniProt P41144); test: Inhibition of tritiated U69,593 binding to the kappa opiate receptor in guinea pig brain homogenates; design: Mean: unit not given beside the values; settings: 3 nm tritiated U69,593, guinea pig brain membranes; for % Bound: [3H]U69,593 bound; for % Inhibition: inhibition of [3H]U69,593 binding; for Mean: mean bound radioactivity of [3H]U69,593, 2.5 hours 25° C.; for Minus NSB: mean minus non-specific binding
T1 construct: guinea pig cortices and cerebella were homogenized in 40 mL of Buffer A; from tissue; host or cells: guinea pig cortices and cerebella, crude membrane suspension
Experimental: The above-prepared library of individual compounds was screened for the ability to inhibit the binding of tritiated Compound U69,593 that is known to bind specifically to the kappa opiate receptor present in guinea pig brain homogenates following literature procedures. [Dooley et al., J. Biol. Chem., 273(30) 18848-18856 (1998)]
Briefly, guinea pig cortices and cerebella were homogenized in 40 mL of Buffer A [50 mM Tris-HCl, pH 7.4] at 4° C. Homogenates were centrifuged [Beckman® J2-HC, 35, 300×g] for 10 minutes. The pellets were resuspended in fresh buffer and incubated at 37° C. for 40 minutes. Following incubation, the suspensions were centrifuged as before, the resulting pellets resuspended in 100 volumes of Tris buffer, and the suspensions combined. Membrane suspensions were prepared and used on the same day. Protein content of the crude homogenates was determined by the method of Bradford, Anal. Biochem., 72:248-252 (1976).
Each assay tube contained 0.5 mL of membrane suspension, 3 nm of tritiated Compound U69,593 [(5a,7a,8b)-(−)-N-methyl-N-(7-(1-pyrrolidinyl)-1-oxaspiro(4,5)dec-8-yl)-benzeneacetamide; Lahti et al., European J. Pharmacol., 109:281-284(199-85)] in a total volume of 0.65 mL. Assay tubes were incubated for 2.5 hours a 25° C. The assay was then filtered through GF-B filters on a Tomec™ harvester (Orange, Conn.). The filters were subsequently washed with 6 mL of 50 mM Tris-HC1, pH 7.4 at 4° C. Bound radioactivity was counted on a Wallace™ Beta-plate Liquid Scintillation Counter (Piscataway, N.J.). Unlabeled U50, 488 [(trans-(dl)-3,4-dichloro-N-methyl-N-[2-(1-pyrrolidinyl)cyclohexyl]-benzeneacetamide) methane sulfonate hydrate; Lahti et al., Life Sci., 31:2257-xx(1982) and Von Voightlander et al., J. Pharmacol. Exp. Ther., 224:7 (1983)] was used as a competitive inhibitor to generate a standard curve and determine nonspecific binding. The results of these assays are shown in the table, below, wherein the “R” groups are as discussed for Example 1.

mu opiate receptor = molecular target: T2, mu opiate receptor (Rattus norvegicus, UniProt P33535); test: Inhibition of [3H]DAMGO binding to the mu opiate receptor in rat brain homogenates; design: Mean: unit not given beside the values; settings: 0.08 mg of compound per milliliter, 7 nM 3H-labeled DAMGO, rat brain membranes; for % Bound: [3H]DAMGO bound; for Mean: mean bound radioactivity of [3H]DAMGO; for Minus NSB*: mean minus non-specific binding; for % Inhibition: percent inhibition of DAMGO binding
T2 construct: from tissue; host or cells: rat brain membranes/homogenate
Experimental: The previously prepared [3,5,7]-1H-imidazo[1,5-a]-imidazol-2(3H)-one library of individual compounds was screened for the ability to inhibit the binding of [^3H] [D-Ala^2,MePhe^4,Gly^5-ol]enkephalin (DAMGO) that is known to bind specifically to the mu opiate receptor present in rat brain homogenates following literature procedures. [Dooley et al., Science, 266:2019(1994); U.S. Pat. No. 5,763,193.]
Preparation of rat brain membranes and the receptor binding assay were carried out as described in Dooley et al., Life Sci., 52:1509(1993). Each tube in the screening assay contained 0.08 mg of compound mixture per milliliter, 0.5 mL of membrane suspension (0.1 mg of protein), 7 nM ^3H-labeled DAMGO [specific activity 36 Ci/mmol, obtained from the National Institute on Drug Abuse (NIDA) repository through Chiron Mimotopes PeptideSystems (San Diego, Calif.) and […] of peptide mixture in 50 mM Tris-HCl buffer (pH 7.4). The final volume was 0.65 mL. The results of these screenings are shown in the table, below, wherein the “R” groups are as discussed for Example 1. The results are reported as percent inhibition of DAMGO binding.

T2 sequence (P33535 whole entry): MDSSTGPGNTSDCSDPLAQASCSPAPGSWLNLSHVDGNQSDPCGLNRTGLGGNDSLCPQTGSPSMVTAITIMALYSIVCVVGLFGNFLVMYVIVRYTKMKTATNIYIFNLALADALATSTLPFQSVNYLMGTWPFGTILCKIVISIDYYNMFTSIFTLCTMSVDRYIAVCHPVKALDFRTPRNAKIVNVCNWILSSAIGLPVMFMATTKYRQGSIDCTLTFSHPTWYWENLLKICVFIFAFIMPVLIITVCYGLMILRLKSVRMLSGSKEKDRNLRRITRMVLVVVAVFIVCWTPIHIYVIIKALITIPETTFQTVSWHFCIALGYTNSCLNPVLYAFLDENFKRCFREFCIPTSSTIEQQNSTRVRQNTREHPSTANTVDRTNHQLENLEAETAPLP
T1 sequence (P41144 whole entry): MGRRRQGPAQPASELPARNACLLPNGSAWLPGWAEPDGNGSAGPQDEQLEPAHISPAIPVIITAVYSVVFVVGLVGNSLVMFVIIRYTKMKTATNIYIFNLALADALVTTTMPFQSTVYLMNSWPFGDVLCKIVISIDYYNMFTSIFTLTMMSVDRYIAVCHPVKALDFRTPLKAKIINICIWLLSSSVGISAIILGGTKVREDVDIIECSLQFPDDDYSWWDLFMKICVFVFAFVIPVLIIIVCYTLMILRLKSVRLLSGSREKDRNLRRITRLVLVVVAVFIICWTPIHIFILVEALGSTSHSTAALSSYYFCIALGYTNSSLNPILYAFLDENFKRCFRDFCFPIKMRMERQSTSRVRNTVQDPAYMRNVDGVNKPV

Row | Compound | % Bound (kappa opiate receptor) [%] | % Inhibition (kappa opiate receptor) [%] | Mean (kappa opiate receptor) | Minus NSB (kappa opiate receptor) | % Bound (mu opiate receptor) [%] | Mean (mu opiate receptor) | Minus NSB* (mu opiate receptor) | % Inhibition (mu opiate receptor) [%]
1 | Cc1nc(C(C)C)c2n1C(Cc1ccccc1)C(=O)N2 (stereo not shown) [Pool 30] | 74.884 | 25.116 | 1682.8 | 775.80 | 65 | 929.9 | 621.90 | 35
2 | CC(C)c1nc(C2CCC2)n2c1NC(=O)C2C(C)C (stereo not shown) [Pool 144] | 52.172 | 47.828 | 1447.5 | 540.50 | 59 | 867.3 | 559.30 | 41
3 | CSCCc1nc(C)n2c1NC(=O)C2C(C)C (racemic) [Pool 59] | 78.953 | 21.047 | 1724.95 | 817.95 | 59 | 874.75 | 566.75 | 41
4 | Cc1nc(C(C)C)c2n1C(C(C)C)C(=O)N2 (stereo not shown) [Pool 142] | 79.324 | 20.676 | 1728.8 | 821.80 | 67 | 946.05 | 638.05 | 33
5 | Cc1nc(C(C)C)c2n1C(CC(C)C)C(=O)N2 (stereo not shown) [Pool 20] | 68.996 | 31.004 | 1621.8 | 714.80 | 50 | 787.6 | 479.60 | 50
6 | CCCCC(CC)c1nc(C(C)C)c2n1C(C(C)C)C(=O)N2 (mixture of isomers) [Pool 128] | 57.563 | 42.437 | 1503.35 | 596.35 | 60 | 881.35 | 573.35 | 40
7 | CCCCC1C(=O)Nc2c(C(C)C)nc(C)n21 (stereo not shown) [Pool 11] | 80.034 | 19.966 | 1736.15 | 829.15 | 47 | 756.05 | 448.05 | 53
8 | CCCc1nc(C(C)C)c2n1C(C(C)C)C(=O)N2 (racemic) [Pool 121] | 60.468 | 39.532 | 1533.45 | 626.45 | 54 | 826.45 | 518.45 | 46
9 | Cc1nc(CC2CCCCC2)c2n1C(C(C)C)C(=O)N2 (stereo not shown) [Pool 46] | 121.815 | −21.815 | 2169 | 1262.00 | 60 | 881.4 | 573.40 | 40
10 | CC(C)c1nc(C2(c3ccccc3)CC2)n2c1NC(=O)C2C(C)C (racemic) [Pool 67] | 84.662 | 15.338 | 1784.1 | 877.10 | 55 | 830 | 522.00 | 45
11 | Cc1nc(Cc2ccccc2)c2n1C(C(C)C)C(=O)N2 (racemic) [Pool 63] | 84.913 | 15.087 | 1786.7 | 879.70 | 57 | 854.35 | 546.35 | 43
